Source: the supplement of paper PMC11451515

Tested on: SEM cells
Test: cell viability relative to DMSO control; higher = less cytotoxic
Settings: 48 h
Method in brief: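 NOMO1 or SEM (500 cells/well) or P12-Ichikawa (1000 cells/well) leukemia cells were adapted for at least four passages in each medium. They were seeded in 1536-well plates (5 μl) and pin-dosed with library compounds in DMSO over an 11-point threefold series, 47 μM to 0.79 nM. CellTiter-Glo One luminescence was read after 48 h at 37°C. Viability is the per-plate percentage relative to DMSO wells, with cell-free wells as background.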

[1] = HPLM + 10% dialyzed FBS, 0.000781 µM
[2] = HPLM + 10% dialyzed FBS, 0.00234 µM
[3] = HPLM + 10% dialyzed FBS, 0.00702 µM
[4] = HPLM + 10% dialyzed FBS, 0.0211 µM
[5] = HPLM + 10% dialyzed FBS, 0.0632 µM
[6] = HPLM + 10% dialyzed FBS, 0.19 µM
[7] = HPLM + 10% dialyzed FBS, 0.569 µM
[8] = HPLM + 10% dialyzed FBS, 1.71 µM
[9] = HPLM + 10% dialyzed FBS, 5.12 µM
[10] = HPLM + 10% dialyzed FBS, 15.4 µM
[11] = HPLM + 10% dialyzed FBS, 46.1 µM
[12] = RPMI 5 mM glucose + 10% FBS, 0.000781 µM
[13] = RPMI 5 mM glucose + 10% FBS, 0.00234 µM
[14] = RPMI 5 mM glucose + 10% FBS, 0.00702 µM
[15] = RPMI 5 mM glucose + 10% FBS, 0.0211 µM
[16] = RPMI 5 mM glucose + 10% FBS, 0.0632 µM
[17] = RPMI 5 mM glucose + 10% FBS, 0.19 µM
[18] = RPMI 5 mM glucose + 10% FBS, 0.569 µM
[19] = RPMI 5 mM glucose + 10% FBS, 1.71 µM
[20] = RPMI 5 mM glucose + 10% FBS, 5.12 µM
[21] = RPMI 5 mM glucose + 10% FBS, 15.4 µM
[22] = RPMI 5 mM glucose + 10% FBS, 46.1 µM
[23] = RPMI 5 mM glucose + 10% dialyzed FBS, 0.000781 µM
[24] = RPMI 5 mM glucose + 10% dialyzed FBS, 0.00234 µM
[25] = RPMI 5 mM glucose + 10% dialyzed FBS, 0.00702 µM
[26] = RPMI 5 mM glucose + 10% dialyzed FBS, 0.0211 µM
[27] = RPMI 5 mM glucose + 10% dialyzed FBS, 0.0632 µM
[28] = RPMI 5 mM glucose + 10% dialyzed FBS, 0.19 µM
[29] = RPMI 5 mM glucose + 10% dialyzed FBS, 0.569 µM
[30] = RPMI 5 mM glucose + 10% dialyzed FBS, 1.71 µM
[31] = RPMI 5 mM glucose + 10% dialyzed FBS, 5.12 µM
[32] = RPMI 5 mM glucose + 10% dialyzed FBS, 15.4 µM
[33] = RPMI 5 mM glucose + 10% dialyzed FBS, 46.1 µM

Compound	cell viability [1]	cell viability [2]	cell viability [3]	cell viability [4]	cell viability [5]	cell viability [6]	cell viability [7]	cell viability [8]	cell viability [9]	cell viability [10]	cell viability [11]	cell viability [12]	cell viability [13]	cell viability [14]	cell viability [15]	cell viability [16]	cell viability [17]	cell viability [18]	cell viability [19]	cell viability [20]	cell viability [21]	cell viability [22]	cell viability [23]	cell viability [24]	cell viability [25]	cell viability [26]	cell viability [27]	cell viability [28]	cell viability [29]	cell viability [30]	cell viability [31]	cell viability [32]	cell viability [33]
Cc1cc(OCCC[S+](C)(=O)[O-])cc(C)c1-c1cccc(COc2ccc3c(c2)OC[C@H]3CC(=O)O)c1	104%	113%	110%	104%	107%	101%	96.5%	99.9%	98.3%	112%	91.1%	105%	104%	105%	114%	103%	91.8%	106%	98.4%	85.7%	98.6%	63.1%	97.7%	132%	109%	118%	95.5%	108%	109%	105%	93.1%	105%	65%
CO[C@@]12[C@H](COC(N)=O)C/3=C(N1C[C@@H]4N[C@H]24)/C(=O)/C(=C(N)\C3=O)C	123%	123%	123%	114%	115%	115%	125%	121%	95.7%	108%	81.7%	91.7%	97.2%	90.7%	96.2%	90%	97.1%	75.5%	95.3%	86.5%	92.2%	74%	131%	121%	124%	112%	121%	112%	116%	125%	118%	114%	85.3%
Cc1cc(O)c2c(c1)C(=O)c1cccc(O)c1C2=O	99.4%	121%	126%	100%	122%	133%	135%	135%	116%	70.5%	71.6%												117%	111%	124%	109%	137%	140%	134%	110%	123%	81.2%	64.7%
C=C1C(=O)[C@@]23C(CC[C@@H]1[C@H]2O)[C@@]12CO[C@]3(O)[C@@H](O)[C@@H]1C(C)(C)CC[C@@H]2O (stereo not given in full)	102%	96.9%	109%	113%	119%	103%	98.5%	103%	70%	20.5%	3.53%	106%	86.9%	107%	101%	104%	102%	86.7%	67.7%	37%	4.45%	2.3%	105%	7.74%	99.2%	109%	113%	107%	92%	97.3%	49.3%	9.6%	2.85%
N[S+](=O)([O-])c1cc2c(cc1Cl)NC(C(Cl)Cl)N[S+]2(=O)[O-] (stereo not given)	89%	95.6%	98.8%	86.3%	105%	103%	102%	91.5%	111%	116%	111%	103%	110%	90.3%	107%	114%	113%	122%	123%	115%	129%	109%	95.1%	108%	113%	102%	124%	122%	121%	132%	142%	106%	125%
O=S(=O)([O-])CCS.[Na+]	96.5%	104%	100%	96.9%	113%	113%	122%	107%	100%	116%	107%	101%	102%	89.6%	124%	107%	115%	109%	124%	112%	123%	122%	109%	104%	108%	108%	114%	137%	130%	135%	121%	137%	155%
CCN1\C=C(\C(O)=O)C(=O)C2=C1N=C(N3CCNCC3)C(=C2)F	58.6%	79.7%	68.2%	87.3%	84.8%	92.3%	84.8%	88.5%	84.2%	81%	68%	77.9%	102%	72%	82%	92.5%	84.5%	92.8%	81.9%	86%	89.6%	77.4%	74.9%	86.8%	71.2%	90.4%	78.1%	84%	90.5%	93.9%	81.5%	103%	87.8%
O=[N+]([O-])c1ncc[nH]1	86%	88.2%	99.9%	93.1%	74.6%	88%	76.1%	84%	89.3%	79.9%	55.1%	98.2%	91.2%	94.5%	113%	94.9%	93.5%	87.2%	81.3%	93.9%	100%	74.3%	108%	97.4%	101%	101%	90.4%	93.7%	94.8%	85.8%	108%	106%	49.8%
CN(C)C1=CC(=CC=C1)C\2=C\3C(=O)N(NC3=C/C(=O)N2C)C4=CC=CC=C4Cl	98.5%	105%	111%	107%	102%	103%	98.1%	16.9%	5.63%	5.04%	6.91%												109%	109%	136%	116%	104%	124%	95.9%	7.24%	5.43%	6.87%	7.46%
CC[C@@H]1[C@@H](C)O[C@@](O)([C@@H](C)[C@H](O)[C@H](C)[C@H]2OC(=O)/C=C/C=C/[C@H](C)[C@@H]([C@@H](C)[C@@H](O)[C@H](C)[C@@]3(O)C[C@@H](O[C@H]4C[C@H](O)[C@H](O)[C@H](C)O4)[C@H](CC)[C@@H](C)O3)OC(=O)/C=C/C=C/[C@@H]2C)C[C@H]1O[C@H]1C[C@H](O)[C@H](O)[C@H](C)O1	98.9%	114%	115%	104%	130%	113%	105%	101%	6.3%	29.3%	5.37%	113%	106%	125%	101%	109%	114%	101%	88.9%	7.21%	11.6%	4.01%	112%	121%	108%	118%	113%	128%	92.3%	77.1%	7.23%	19%	4.96%
O=C(Nc1nnc(-c2ccco2)o1)c1cc(-c2ccccc2)nc2ccccc12	87.5%	96.5%	96.3%	95%	91.5%	110%	95.3%	106%	103%	93%	4.54%	92.6%	75.1%	95.6%	79.7%	104%	95.6%	98.2%	85%	41.3%	5.04%	2.95%	91.8%	94.2%	104%	101%	107%	109%	99%	95.3%	106%	77.8%	3.49%
CC(C)=CCC/C(C)=C/CC/C(C)=C/CSc1ccccc1C(=O)O	97.5%	116%	111%	97.3%	93.2%	81.2%	80%	67.3%	58.3%	30.3%	8.4%	118%	124%	111%	119%	117%	106%	96.6%	71.8%	62.4%	22.3%	2.67%	94.6%	105%	84.7%	106%	97.8%	99.1%	74.8%	71.2%	62.5%	33.8%	8.59%
COc1cc([C@@H]2c3cc4c(cc3[C@H](O)[C@H]3COC(=O)[C@@H]23)OCO4)cc(OC)c1OC	83.1%	82.7%	95.3%	101%	86.7%	69.5%	30.2%	19.1%	18.8%	13.2%	11.6%	101%	97.2%	104%	98.3%	93.5%	80.7%	23.2%	12.1%	12.2%	13.5%	6.13%	75.4%	76%	99.9%	86.5%	81.2%	63%	29.2%	16.8%	17.9%	16.9%	8.73%
N\C1=N\C2=C(N=C[N]2COCCO)C(=O)N1	93.7%	101%	97.2%	103%	100%	99.7%	111%	104%	89.5%	77.3%	60.5%	87%	107%	106%	112%	101%	104%	115%	117%	106%	93.4%	56.5%	83%	93.9%	95.9%	94.3%	95.1%	115%	90.1%	101%	88.2%	73.3%	44.8%
